Assay results published in US9551724B2, “5-fluoro-uracil immunoassay” (SALADAX BIOMEDICAL, INC., priority 2005, dated 2017).

Legend:
Type in all cases: binding, BALB/c mice
[1] = test system: monoclonal antibody to 3-substituted 5-FU KLH immunogen (example 6b); test: Indirect competitive microtiter plate immunoassay (ELISA), monoclonal antibody; plate coating 3-substituted BSA conjugate (1:1, example 7b); details: relative to 5-FU (ratio of IC50 for 5-FU to IC50 of analyte), 3-Substituted KLH Immunogen, plate coating 3-Substituted BSA Conjugate (example 7b)
Protocol: (§1) Ten Female BALB/c mice were immunized i.p. with 100 μg/mouse of 5-FU-KLH prepared in example 5 or with 5-FU-BTG prepared in example 6a, emulsified in Complete Freund's Adjuvant. Mice were boosted once four weeks after the initial injection with 100 μg/mouse of the same immunogens emulsified in Incomplete Freund's Adjuvant. Ten days after the boost test bleeds from each mouse were obtained by orbital bleed. The anti-serum from these test bleeds contained 5-FU antibodies evaluated in Examples 12a, 13, and 14. For monoclonal antibodies ten Female BALB/c mice were immunized i.p. with 100 μg/mouse of 3-substituted 5-FU-KLH prepared in example 6b, emulsified in Complete Freund's Adjuvant. Mice were boosted once four weeks after the initial injection with 100 μg/mouse of the same immunogens emulsified in Incomplete Freund's Adjuvant. Ten days after the boost test bleeds from each mouse were obtained by orbital bleed and these were screened as in examples 12a and 15. To produce monoclonal antibodies starting four days before the fusion (day 0), the mice were injected i.p. with 400 μg (day 3), 200 μg (day 2) and 200 μg (day 1) 3-substituted 5-FU KLH immunogen in PBS on three successive days. Spleen cells were isolated from the selected mice and fused with 2×10^7 SP2/0 cells with 50% polyethylene glycol 1500 according to the method of Coligan, J. E. et al., eds., Current Protocols in Immunology, 2.5.1-2.5.8, (1992), Wiley & Sons, NY. The fused cells were plated on 10 96-well plates in DMEM/F12 supplemented with 20% FetalClone I, 2% L-glutamine (100 mM) and 2% 50×HAT. Two weeks later, the hybridoma supernatant was assayed for the presence of anti-5-FU by ELISA (example 12b). Positive wells were expanded and again screened by the same method. The positive clones were confirmed for 5-FU binding by a competitive ELISA (examples 12a and 15). Clones positive by ELISA were subcloned once or twice by limiting dilution according to the method disclosed in Coligan, J. E. et al., eds., Current Protocols in Immunology, 2.5.8-2.5.17, (1992), Wiley & Sons, NY.
(§2) The ELISA method for measuring 5-FU concentrations was performed in polystyrene microtiter plates (Nunc MaxiSorp C8 or F8 Immunomodules) optimized for protein binding and containing 96 wells per plate. Each well was coated with 5-FU-BSA conjugate (prepared as in example 7b) by adding 300 μL of 5-FU-BSA conjugate at 10 μg/mL in 0.05M sodium bicarbonate, pH=9.6, and incubating for three hours at room temperature. The wells were washed with 0.05M sodium bicarbonate, pH9.6 and then were blocked with 375 μL of 5% sucrose, 0.2% sodium caseinate solution for 30 minutes at room temperature. After removal of the post-coat solution the plates were dried at 37° C. overnight.
(§3) The ELISA method for screening 5-FU antibodies (produced in example 9) was performed with the microtiter plates that were sensitized with 5-FU-BSA as described in examples 7a, 7b and 8. The antibody screening assay was performed by diluting the antisera containing 5-FU antibodies to 1:100, 1:1,000, 1:10,000 and 1:100,000 in phosphate buffered saline containing 0.1% BSA and 0.01% thimerosal. To each well of 5-FU-BSA sensitized wells (prepared in examples 11a, 11b and 10) 100 μL of diluted antibody was added and incubated for 10 minutes at room temperature with shaking. During this incubation antibody binds to the 5-FU-conjugate in the well. The wells of the plates were washed three times with 0.02 M TRIS, 0.9% NaCl, 0.5% Tween-80 and 0.001% Thimerosal, pH 7.8 to remove any unbound antibody. To detect the amount of 5-FU antibody bound to the 5-FU-BSA conjugate in the wells, 100 μL of a goat anti-mouse antibody-HRP enzyme conjugate (Jackson Immunoresearch) diluted 1/2000 in PBS with 0.1% BSA, 0.05% ANS, 0.01% thimerosal, capable of binding specifically with murine immunoglobulins and producing a colored product when incubated with a substrate, were added to each well. […]

[2] = test system: polyclonal antibody to 3-Substituted 5-FU BTG Immunogen (example 6a); test: Indirect competitive microtiter plate immunoassay (ELISA), antibodies to 5-FU derivative 13 conjugate; plate coating 1-substituted BSA conjugate (20:1, example 8); details: relative to 5-FU (ratio of IC50 for 5-FU to IC50 of analyte), 3-Substituted BTG Immunogen, plate coating 1-Substituted BSA Conjugate (20:1 ratio)
Protocol: as §1
as §2, with “8)” for “7b)”, “400” for “375”
as §3

[3] = test system: polyclonal antibody to 1-Substituted 5-FU KLH Immunogen (example 5); test: Indirect competitive microtiter plate immunoassay (ELISA), antibodies to 5-FU derivative 4 conjugate; plate coating 3-substituted BSA conjugate (10:1, example 7a); details: relative to 5-FU (ratio of IC50 for 5-FU to IC50 of analyte), 1-Substituted KLH Immunogen, plate coating 3-Substituted BSA Conjugate (10:1 ratio)
Protocol: as §1
as §2, with “7a)” for “7b)”, “400” for “375”
as §3

O=c1[nH]cc(F)c(=O)[nH]1 [5Fluorouracil, 5-fluoro-uracil]
Cross-Reactivity [1]: 100.0% | Cross-Reactivity [2]: 100.0% | Cross-Reactivity [3]: 100.0%

Nc1cc[nH]c(=O)n1 [Cytosine, cytosine]
Cross-Reactivity [1]: <0.01% | Cross-Reactivity ([1]; listed as cytosine): less than 0.01% | Cross-Reactivity [2]: <0.3% | Cross-Reactivity ([2]; listed as cytosine): less than 0.03% | Cross-Reactivity [3]: <0.1%

O=c1[nH]c(=O)n(C2CCCO2)cc1F (stereo not drawn) [Tegafur, tegafur]
Cross-Reactivity [1]: 1.0% | Cross-Reactivity ([1]; listed as tegafur): approximately 1% | Cross-Reactivity [2]: 0.5% | Cross-Reactivity ([2]; listed as tegafur): less than 1% | Cross-Reactivity [3]: 200.0% | Cross-Reactivity ([3]; listed as tegafur): 200%

Cc1c[nH]c(=O)[nH]c1=O [Thymine, thymine]
Cross-Reactivity [1]: 3.2% | Cross-Reactivity ([1]; listed as thymine): less than 4% | Cross-Reactivity [2]: 12.0% | Cross-Reactivity ([2]; listed as thymine): about 12% | Cross-Reactivity [3]: 6.7%

O=c1cc[nH]c(=O)[nH]1 [Uracil, uracil]
Cross-Reactivity [1]: 7.3% | Cross-Reactivity ([1]; listed as uracil): less than 8% | Cross-Reactivity [2]: 7.5% | Cross-Reactivity ([2]; listed as uracil): less than 8% | Cross-Reactivity [3]: 4.0%
